Consider seven compounds from paper PMC12751012, “Nanoscale Direct-to-Biology Optimization and Structural Insights into Selective S. aureus TrmD Inhibitors” (Journal of Medicinal Chemistry, 2025).

In one experiment the target is T1, S. aureus TrmD (Staphylococcus aureus, UniProt Q2FZ43).
T1 construct: made in house; host or cells: E. coli BL21
T1 sequence (Q2FZ43 1-245): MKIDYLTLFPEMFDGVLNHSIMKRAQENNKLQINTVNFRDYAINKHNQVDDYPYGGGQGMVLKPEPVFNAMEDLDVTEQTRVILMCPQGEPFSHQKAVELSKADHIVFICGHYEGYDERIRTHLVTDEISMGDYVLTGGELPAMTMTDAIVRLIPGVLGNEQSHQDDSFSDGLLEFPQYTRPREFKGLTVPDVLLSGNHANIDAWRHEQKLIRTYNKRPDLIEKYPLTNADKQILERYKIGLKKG
Put plainly: Fluorescence polarization (FP) assay, tracer 4, S. aureus TrmD. Format: binding. The method, then:
To enable the screening of hundreds of nanomole-scale synthesized compounds, the implementation of a high-throughput-capable RNA methyltransferase (MTase) assay is considered fundamental. […] In this assay format, a fluorescent, SAM-pocket binding tracer can be displaced by the compound under investigation, and the resulting change in fluorescence polarization defines the read-out of the inhibitor compound’s affinity (Figure A).
Fluorescence polarization (FP) assays were performed as follows. The assays for H. influenzae TrmD have been described previously. All assays were conducted in technical triplicate using black 96-well half area plates. For the FP assays, a tracer (20 nM Cy5TPD for E. coli and H. influenzae TrmD, 10 nM tracer 4 for S. aureus TrmD) was mixed with the respective enzyme (2 μM E. coli TrmD, 2 μM H. influenzae TrmD, 500 nM S. aureus TrmD) in buffer (E. coli and H. influenzae TrmD: 50 mM HEPES, 500 mM NaCl, 5% Glycerol, pH 7.5, S. aureus TrmD: 40 mM Tris HCl, 100 mM NaCl, 10 mM MgCl2, 5% Glycerol, pH 7.5). The compounds were added in varying concentrations for K D-value determination. […] The Z-factor for tracer 4 was determined by measuring 48 replicates of the free tracer (positive controls, PC) and 48 replicates of a mixture of enzyme and tracer (negative controls, NC). The Z-factor is defined in terms of the means (μ) and standard deviations (σ) of the positive and negative controls and calculated as Z = 1–(3*(σnc + σpc)/(μnc–μpc)). […] Polarization values (mP) were determined from polarization-specific parallel and orthogonal fluorescence intensities. K D-values were calculated in GraphPad Prism 8.0.1 using the four-parameter Hill equation: y(% tracer bound) = bottom + ([ligand]-slope) × (top–bottom)/([ligand]-slope + K Dslope).
Background: In fluorescence polarisation assays a small probe gives low polarisation when free and higher when bound to something large.

The target in the next experiment is T2, human Trm5 (Homo sapiens, UniProt Q32P41).
T2 construct: a truncated construct of Trm5 (aa 66–475), with flexible termini omitted; made in house; host or cells: E. coli Rosetta2 (DE3)
T2 sequence (Q32P41 66-475): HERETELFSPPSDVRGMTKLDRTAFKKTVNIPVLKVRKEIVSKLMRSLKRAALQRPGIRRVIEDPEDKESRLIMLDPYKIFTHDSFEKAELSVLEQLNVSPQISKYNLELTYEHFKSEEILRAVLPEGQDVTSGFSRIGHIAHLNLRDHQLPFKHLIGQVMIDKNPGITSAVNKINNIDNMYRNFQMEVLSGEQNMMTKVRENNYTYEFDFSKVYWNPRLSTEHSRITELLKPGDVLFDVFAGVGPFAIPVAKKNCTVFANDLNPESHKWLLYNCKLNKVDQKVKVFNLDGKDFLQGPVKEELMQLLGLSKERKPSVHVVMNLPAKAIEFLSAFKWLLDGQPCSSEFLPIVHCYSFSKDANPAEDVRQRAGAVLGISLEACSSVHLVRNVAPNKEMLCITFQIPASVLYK
In words: 3H-based MTase enzyme inhibition assay, Trm5. As to conditions: 3H-based enzyme assay, screened at 30 μM. Format: biochemical. The procedure: ^3H-based inhibition assays for TrmD S. aureus were performed in 50 mM HEPES, 5 mM MgCl2, 80 mM NaCl, 0.005% Tween-20, 1 mM DTT, pH 7.5 buffer; and for Trm5 in 100 mM Tris-HCl, 0.1 mM EDTA, 6 mM MgCl2, 100 mM KCl, 2 mM DTT, pH 7.4. The reaction mixture contained for S. aureus TrmD: 1 μM synthetic tRNA^Leu (Genscript, see above) and 100 nM S. aureus TrmD; For human Trm5:10 μM synthetic tRNA^Leu and 1.5 μM Trm5. Compounds were screened for S. aureus TrmD at 1 μM and for Trm5 at 30 μM. The enzymatic reactions were started by the addition of SAM as a mixture of ^3H-SAM (Hartmann Analytics, S. aureus TrmD: 0.5 μM, Trm5: 2 μM) and cold SAM (New England Biolabs, S. aureus TrmD: 0.5 μM, Trm5: 98 μM) to a final activity of 0.04 μCi μL^–1 (TrmD) or 0.16 μCi μL^–1 (Trm5). The reaction mixtures were incubated in duplicate for 60 min (TrmD)/30 min (Trm5) at 37 °C. As a negative control, the reaction mixture without the enzyme was used, and as a positive control, the reaction mixture without the test compound was used. After the enzyme incubation time, aliquots of 8 μL were taken from the reaction mixture and spotted on Whatman glass microfiber filters (GF/C, 25 mm). The tRNA was precipitated on the filters with 5% ice-cold TCA for 15 min. The filters were washed twice with 5% TCA at room temperature for 20 and 10 min, and once in EtOH for 10 min. After drying, the filters were transferred into scintillation vials with 3 mL of PerkinElmer Gold MV liquid scintillation cocktail. Scintillation was measured with a scintillation counter (TriCarb Liquid Scintillation Analyzer 4810TR; measurement time of 1 min).

The subject of a further experiment is S. aureus RN4220. Put plainly: Bacterial growth inhibition assay, S. aureus RN4220. Format: cell-based, Staphylococcus aureus. As to conditions: for MIC: Staphylococcus aureus, read-out: MIC S. aureus; for effect on S. aureus RN4220 growth: 1, 10 and 100 μM, 24 h growth curves. The method, then:
(§1) Compounds were dissolved in DMSO to a final concentration of 20 mM. To determine the compound’s activity against different bacteria, a bacterial culture (E. coli ATCC10536, S. aureus RN4220) was set up to an optical density at 600 nm (OD600) of 0.05 from an overnight culture in Mueller-Hinton broth (Carl Roth). The compound was added in different concentrations ranging from […] to 1 μM. DMSO concentration was constantly adjusted to be 1% in the final culture. Cultures of 200 μL were incubated for 24 h at 37 °C in flat-bottom 96-well polystyrene culture plates (Greiner) using a BioTek Synergy H1 plate reader. Plates were incubated under constant shaking, and absorbance at 600 nm was measured every 20 min. The experiment was performed in three biological replicates with three technical replicates each.

Another experiment has as its system E. coli ATCC10536. In words: Bacterial growth inhibition assay, E. coli ATCC10536. As to conditions: for effect on E. coli growth: up to 100 μM, growth curves. It is filed as cell-based, Escherichia coli. The procedure:
as §1

Where [1] appears, read: apparent affinity, purified compound, 500 nM TrmD, 10 nM tracer 4, read-out: KD S. aureus TrmD (FP displacement assay).

“Also recorded” adds a separate entry of the source. Like-named read-outs stand apart in the source and are kept apart here.

`CC(C)(C)OC(=O)/N=C(\NCCn1cc(-c2c[nH]c3nc[nH]c(=O)c23)nn1)NC(=O)OC(C)(C)C` [Compound 8g]: the Kd at S. aureus TrmD (setting [1]) was determined as 19.8 µM. For the same compound, the IC50 against human Trm5 is greater than 30 µM. Moreover, in the experiment on S. aureus RN4220 (RN4220, 24 h (1440 min)), the MIC is greater than 100 µM. In the experiment on E. coli ATCC10536, the “effect on E. coli growth” value is recorded as “no significant growth inhibition”.

For the compound `NC(N)=NCCn1cc(-c2c[nH]c3nc[nH]c(=O)c23)nn1` [Compound 8h], at S. aureus TrmD (KD S. aureus TrmD (FP displacement assay), apparent affinity, purified compound, 500 nM TrmD, 10 nM tracer 4), the Kd amounted to 2.48 ± 0.21 µM. The compound also registered an IC50 at human Trm5 greater than 30 µM.

As to `N#Cc1cccc(Cn2cc(-c3c[nH]c4nc[nH]c(=O)c34)nn2)c1` [Compound 8b, 3-((4-(4-Oxo-4,7-dihydro-3H-pyrrolo[2,3-d]pyrimidin-5-yl)-1H-1,2,3-triazol-1-yl)methyl)benzonitrile], on S. aureus TrmD (setting [1]), the Kd came to 1.82 ± 0.13 µM. This compound yielded an IC50 against human Trm5 greater than 30 µM. The “effect on S. aureus RN4220 growth” value in the experiment on S. aureus RN4220 is on record as “no pronounced effect on growth”. The MIC with S. aureus RN4220 (RN4220, 24 h) is greater than 100 µM. The “effect on E. coli growth” value in the experiment on E. coli ATCC10536 is reported as “no pronounced effect on growth”.

Take `O=c1[nH]cnc2[nH]cc(-c3cn(CC4CCC5C(CC4)C5(F)F)nn3)c12` (stereo not shown) [Compound 8c, 5-(1-((8,8-Difluorobicyclo[5.1.0]octan-4-yl)methyl)-1H-1,2,3-triazol-4-yl)-3,7-dihydro-4H-pyrrolo[2,3-d]pyrimidin-4-one]: the Kd at S. aureus TrmD (setting [1]) came out at 1.05 ± 0.11 µM. Moreover, at human Trm5, the IC50 was greater than 30 µM. The “effect on S. aureus RN4220 growth” value with S. aureus RN4220 is on record as “no pronounced effect on growth”. In addition, the MIC with S. aureus RN4220 (RN4220, 24 h (1440 min)) is greater than 100 µM. In the experiment on E. coli ATCC10536, the “effect on E. coli growth” value was “no pronounced effect on growth”.

With `O=C(/N=C(\NCCn1cc(-c2c[nH]c3nc[nH]c(=O)c23)nn1)NC(=O)OCc1ccccc1)OCc1ccccc1` [Compound 8f], the Kd on S. aureus TrmD (setting [1]) is greater than 100 µM. Besides, the “S. aureus TrmD binding (FP)” value on S. aureus TrmD (up to 100 μM) is recorded as “no S. aureus TrmD binding”. Further, on human Trm5, the IC50 was greater than 30 µM. The “effect on S. aureus RN4220 growth” value with S. aureus RN4220 is recorded as “significant reduction in S. aureus growth; also recorded: significant effect on S. aureus bacteria in lower concentrations”. In the experiment on S. aureus RN4220 (RN4220, 24 h (1440 min)), the MIC turned out to be 12.5 µM. In addition, in the experiment with E. coli ATCC10536 (highest concentration (100 μM)), the “E. coli growth rate” value is “slight increase”. In the experiment with E. coli ATCC10536, the “effect on E. coli growth” value is listed as “no significant growth inhibition”.

Regarding `O=c1[nH]cnc2[nH]cc(-c3cn(Cc4ccc5ncccc5c4)nn3)c12` [Compound 8d, 5-(1-(Quinolin-6-ylmethyl)-1H-1,2,3-triazol-4-yl)-3,7-dihydro-4H-pyrrolo[2,3-d]pyrimidin-4-one], the Kd on S. aureus TrmD (setting [1]) was determined as 0.72 ± 0.07 µM; at S. aureus TrmD (chromatographically purified compound, read-out: KD S. aureus TrmD (FP displacement assay)), 0.725 ± 0.075 µM. For the same compound, the IC50 against human Trm5 is greater than 30 µM. The “effect on S. aureus RN4220 growth” value in the experiment on S. aureus RN4220 is listed as “no pronounced effect on growth”. Besides, in the experiment with S. aureus RN4220 (RN4220, 24 h (1440 min)), the MIC is greater than 100 µM. Also, the “effect on E. coli growth” value with E. coli ATCC10536 is reported as “no pronounced effect on growth”.

For the compound `N[C@@H]1CCC[C@@H]1Cn1cc(-c2c[nH]c3nc[nH]c(=O)c23)nn1` [Compound 8e, 5-(1-(((1R,2R)-2-Aminocyclopentyl)methyl)-1H-1,2,3-triazol-4-yl)-3,7-dihydro-4H-pyrrolo[2,3-d]pyrimidin-4-one], at S. aureus TrmD (setting [1]), the Kd was found to be 1.62 ± 0.24 µM. This compound showed an IC50 against human Trm5 greater than 30 µM. Further, the “effect on S. aureus RN4220 growth” value in the experiment on S. aureus RN4220 is “no pronounced effect on growth”. In the experiment with S. aureus RN4220 (RN4220, 24 h (1440 min)), the MIC was greater than 100 µM. In addition, the “effect on E. coli growth” value in the experiment on E. coli ATCC10536 was “no pronounced effect on growth”.

One may read the IC50 as the concentration needed to halve the response being measured. Usually MIC stands for the lowest concentration that inhibits growth of the organism.
